According to US20120035531A1, “ON-DEMAND AND REVERSIBLE DRUG RELEASE BY EXTERNAL CUE” (PRESIDENT AND FELLOWS OF HARVARD COLLEGE, priority 2009, published 2012):

Tests used:
[1] = test system: MCF7 breast cancer cells; assay: Bioactivity of ultrasound-released Mitoxantrone: MCF7 cell viability; format: cell-based; conditions: 24 hours, ultrasound-released vs fresh Mitoxantrone solution 0.1 to 20 μg/mL
Experimental: The bioactivity of the released Mitoxantrone in example 1 was studied by incubating MCF7 breast cancer cells in the Mitoxantrone solution, and measuring the cell viability after 24 hours. Fresh Mitoxantrone solutions (unmixed with polymer) with various concentrations ranging from 0.1 to 20 μg/mL were also used to incubate the same number of MCF7 breast cancer cells.

[2] = In vitro release of encapsulated Mitoxantrone from alginate hydrogel with ultrasound; format: physicochemical
Experimental: Alginate hydrogels containing 0.825 mg/mL of Mitoxantrone were prepared by mixing alginate aqueous solution with slurries of CaSO4, to a final concentration of 50 mM Ca^2+ and 2% alginate (w/w) polymer. The gel was cast between two glass slides and cut into discs of approximately 10 mm diameter and 2 mm thickness. Thereafter, hydrogels were swollen overnight in the commercially available Dulbecco's Modified Eagle's Medium (DMEM). Hydrogel disks so prepared were next placed in a 15 mL plastic tube with 5 ml of DMEM. One group of the sample hydrogels were subjected to low-frequency ultrasound with frequency of 20 KHz and intensity of 1 watt for 5 min per hour. A further group comprising control hydrogels, similarly prepared, were not subjected to any stimulation. FIGS. 1A and 1B show the power profiles of ultrasound on the two groups of hydrogels.

O=C1c2c(O)ccc(O)c2C(=O)c2c(NCCNCCO)ccc(NCCNCCO)c21 [Mitoxantrone]
cell viability [1]: reduces cell viability by the same amount as a fresh Mitoxantrone solution of equivalent concentration | level of enhanced release rates across ultrasound pulses ([2]; 20 KHz, 1 watt, 5 min per hour): all on the same level | increase of cumulative release amount ([2]; 5 min of ultrasound per hour, 20 KHz, 1 watt, vs control hydrogels): ~70% | increase of release rates by ultrasound stimulation ([2]; alginate hydrogel 0.825 mg/mL Mitoxantrone in DMEM, 20 KHz, 1 watt, 5 min per hour, vs no stimulation): approximately 10 times | rate of release after removing the ultrasound ([2]; alginate hydrogel in DMEM): decayed to negligible levels
